Results published in patent US20190374509A1, “Methods of Using Metamizole for Treatment of Pyrexia in Equines” (Kindred Biosciences, Inc., priority 2018, published 2019).

How the values were obtained:
horses [1] = experiment: Pyrexia efficacy Study 2 (masked, randomized, placebo controlled, crossover, rectal temperature); format: in vivo; settings: for Mean (standard deviation) temperature: 30 mg/kg IV single dose
Procedure: Study 2: The masked, randomized, placebo controlled laboratory study was conducted at a clinical research organization in the United States. IACUC approval was obtained prior to the conduct of the study. Horses one year of age or older were comingled by the Investigator in order to facilitate transmission of respiratory infections. Horses were monitored by the study staff for elevation of rectal temperature. […] Unblinded dose administrators administered the study drug (Phase 1). A single dose of study drug was administered. Treatment was either dipyrone (30 mg/kg IV) or placebo (saline, matched volume, IV). Blinded personnel recorded the rectal temperature at 4 and 6 hours post-treatment administration. Twenty-four hours following Dose 1 horses were monitored for rectal temperature. Horses with rectal temperature≥102.0° F. were crossed over to the other treatment group. Unblinded dose administrators administered the study drug (Phase 2), and blinded personnel recorded the rectal temperature 4 and 6 hours post-treatment administration. […] Blinding was maintained until the completion of the statistical analysis.
In both studies horses were assessed daily to determine overall safety. Medications that could have impacted the temperature or the underlying cause of the disease were not permitted in either study; however, horses in both studies were eligible for rescue at the discretion of the Investigator. Following completion of the study, the Investigator treated the horses with standard of care for the type, and severity, of clinical signs. Statistical analysis was performed with the Wilcoxon rank sum test (SAS®, SAS Institute, Cary N.C., version 9.4).

horses [2] = experiment: Coagulation effects study, IV BID or TID for 9 days: coagulation panel; format: in vivo; settings: for Prothrombin Time LSMEAN: in s; for Difference in Individual Horse Day 10 PT and Baseline PT: Day 10 PT minus highest baseline PT
Procedure: The purpose of this study was to evaluate the effects of metamizole on coagulation parameters and pharmacokinetic parameters when administered intravenously to horses for 9 days at doses of 0 mg/kg (0×), 30 mg/kg (1×), 60 mg/kg (2×), and 90 mg/kg (3×) of body weight. Doses of 0×, 1×, 2×, and 3× were administered twice daily (BID), every 12 hours±120 min. Doses of 1× and 2× were administered three times daily (TID), every 8 hours±120 min. Metamizole plasma concentrations were assessed in the 1×BID, 3×BID, 1×TID, and 2×TID treatments groups to evaluate for evidence of accumulation.
This was a prospective, randomized, masked, placebo-controlled, parallel-group laboratory study. The protocol was approved by the research laboratory's Institutional Animal Care and Use Committee (IACUC). The study was conducted in compliance with the principles of the relevant CVM Good Clinical Practices Guidelines. Horse care and housing was in compliance with Guide for the Care and Use of Agricultural Animals in Research and Teaching. The study was conducted at a research laboratory with extensive experience in regulatory studies of large animals in the United States.
The investigational drug was a sterile injectable formulation of dipyrone (Zimeta®, Corden Pharma, Caponago, Italy) (500 mg/mL) in 100 mL glass bottles. The placebo was sterile injectable saline (0.9% Saline, Nova-Tech Inc, Grand Island, NE) (0.9% sodium chloride) in 500 mL plastic bottles labeled for veterinary use. Dipyrone treatment groups were 30 mg/kg/dose (1×) administered twice daily (BID), 1× administered three times daily (TID), 60 mg/kg/dose (2×) BID, 2×TID, and 90 mg/kg/dose (3×) BID. Placebo treatment group, (0×) BID, were saline administered at a volume to match the 1× dipyrone group. The dose was calculated based on body weight and administered for nine consecutive days (Days 1-9). Due to the large volume of the injection at the higher test intervals, treatment was administered via indwelling intravenous catheters. Intravenous catheters were placed using standard techniques. Horses were sedated with xylazine (XylaMed™, VetOne, MWI, Boise, Id.) (0.6 mg/kg, IV) and the skin was desensitized with subcutaneous injection of lidocaine (Lidocaine 2%, VetOne, MWI, Boise, Id.). Intravenous catheters were replaced at the discretion of the study director and were maintained with heparinized saline flush prior to, and following, dose administration.
Horses were acclimated to the facility for 14 days prior to start of the treatment phase. […] On Day −1, thirty-two horses were randomized by the study statistician and moved to their assigned pens. On Day −1 (baseline), Day 4, and Day 10 horses had blood collected for a coagulation panel. A physical exam was performed prior to study start and on Day 10.
For continuous endpoints with repeated post-treatment measurements (coagulation), repeated measurement analysis of covariance (SAS MIXED procedure repeated measures of analysis of covariance (RMANCOVA)) were used to evaluate a model including treatment, time, sex, treatment by sex interaction, treatment by time interaction, time by sex interaction, and treatment by time by sex three-way interaction as fixed effects. In addition, baseline values were included as a covariate and remained in the model regardless of its significance. Baseline values were defined as the values prior to and nearest to the first dosing.

horses [3] = experiment: Margin of safety study: lung bacterial culture at necropsy
[4] = 2X TID, 60 mg/kg IV three times daily
[5] = 3X BID, 90 mg/kg IV twice daily

In the case of `Cc1c(N(C)CS(=O)(=O)O)c(=O)n(-c2ccccc2)n1C` [dipyrone, [(2,3-dihydro-1,5-dimethyl-3-oxo-2-phenyl-1H-pyrazol-4-yl)methylamino] methanesulfonic acid], the “Mean (standard deviation) temperature” value (horses [1]; Phase 1, hour 4) is reported as 100.0 ° F, the “Mean (standard deviation) temperature” value (horses [1]; Phase 1, hour 6) is reported as 100.8 ° F and the “Mean (standard deviation) temperature” value (horses [1]; Phase 2 (crossover), hour 4) is reported as 100.4 ° F. The “Mean (standard deviation) temperature” value (horses [1]; Phase 2 (crossover), hour 6) was 100.8 ° F, the “Rectal temperature compared to controls” value (horses [1]; 30 mg/kg IV, both phases, Hour 4, p<0.0001) was “significantly lowered rectal temperatures” and the “Prothrombin Time LSMEAN” value (horses [2]; 1X BID, 30 mg/kg IV twice daily for 9 days) was 13.407. For the same compound, the “Prothrombin Time LSMEAN” value (horses [2]; 1X TID, 30 mg/kg IV three times daily for 9 days) was 13.553, the “Prothrombin Time LSMEAN” value (horses [2]; 2X BID, 60 mg/kg IV twice daily for 9 days) was 13.469 and the “Prothrombin Time LSMEAN” value (horses [2]; 2X TID, 60 mg/kg IV three times daily for 9 days) was 13.733. For the same compound, the “Prothrombin Time Day 4 Range” value (horses [2]; [4]) was 12.9 to 15.6 s, the “Prothrombin Time Day 10 Range” value (horses [2]; [4]) was 13.2 to 16.6 s and the “Difference in Individual Horse Day 10 PT and Baseline PT” value (horses [2]; [4]) was 0.1 to 0.5 s. The “Prothrombin Time LSMEAN” value (horses [2]; 3X BID, 90 mg/kg IV twice daily for 9 days) was 14.238, the “Prothrombin Time Day 4 Range” value (horses [2]; [5]) was 13.2 to 14.5 s and the “Prothrombin Time Day 10 Range” value (horses [2]; [5]) was 13.4 to 14.9 s. The “Difference in Individual Horse Day 10 PT and Baseline PT” value (horses [2]; [5]) was 0.1 to 0.7 s, the “Activated partial thromboplastin time (APTT) or fibrinogen” value (horses [2]; all treatment groups (30-90 mg/kg IV BID or TID, 9 days)) was “No main treatment effect” and the “S. aureus cultured at necropsy, number positive horses” value (“S. aureus cultured at necropsy” below) (horses [3]; 1X, 30 mg/kg IV every 8 hours) was 1. The “Acinetobacter sp. cultured at necropsy, number positive horses” value (horses [3]; 2X, 60 mg/kg IV every 8 hours) was 2X (n = 1), the “Aeromonas sp. cultured at necropsy, number positive horses” value (horses [3]; 2X, 60 mg/kg IV every 8 hours) was 2X (n = 1) and the “Pantoea sp. cultured at necropsy, number positive horses” value (horses [3]; 2X, 60 mg/kg IV every 8 hours) was 2X (n = 1). The “Pseudomonas sp. cultured at necropsy, number positive horses” value (horses [3]; 2X, 60 mg/kg IV every 8 hours) was 2X (n = 1), the “S. aureus cultured at necropsy” value (horses [3]; 2X, 60 mg/kg IV every 8 hours) was 2 and the “S. dysgalactiae subsp. equisimilis cultured at necropsy, number positive horses” value (horses [3]; 2X, 60 mg/kg IV every 8 hours) was 2X (n = 1). For the same compound, the “S. equi subsp. zooepidemicus cultured at necropsy, number positive horses” value (horses [3]; 2X, 60 mg/kg IV every 8 hours) was 0X (n = 2), 2X (n = 1), 3X (n = 1), the “S. aureus cultured at necropsy” value (horses [3]; 3X, 90 mg/kg IV every 8 hours) was 2 and the “S. equi subsp. zooepidemicus cultured at necropsy, number positive horses” value (horses [3]; 3X, 90 mg/kg IV every 8 hours) was 0X (n = 2), 2X (n = 1), 3X (n = 1).
